From publication PMC6214143, “Oncotoxic Properties of Serotonin Transporter Inhibitors and 5-HT1A Receptor Ligands” (International Journal of Molecular Sciences, 2018)
Structures can show the parent of a compound that is named as a salt.

Tests used:
PC-3 cells = assay: MTT cell survival assay, PC-3 cells; type: cell-based, human; conditions: for IC50: Homo sapiens, PC-3 cells, MTT, 72 h; for Selectivity Index: IC50 Balb/c 3T3 / IC50 PC-3
Experimental: (§1) The effects of the test compounds on the survival of PC-3, SH-SY5Y, Balb/c 3T3 and HEK293 cells was measured with the aid of the 3-(4,5-dimethylthiazol-2-yl)-2,5-diphenyltetrazolium bromide (MTT) assay. The cells were cultured in 96-well plates (100 μL/well) for 72 h. The optimized initial densities were the following: for PC-3—60,000 cells/mL, SH-SY5Y and Balb/c 3T3—50,000 cells/mL.
(§2) After 20 h preincubation and evaluation of the uniformity of cell growth, the medium was aspirated, and the respective solutions of the substances were added to the culture medium. Control cells were only treated the solvent used for the compounds and medium alone.
(§3) MTT (3-(4,5-dimethylthiazol-2-yl)-2,5-diphenyltetrazolium bromide) is reduced by intracellular dehydrogenase, which is present only in live cells (mitochondria), to purple, water-insoluble formazan. After it is dissolved, formazan absorbance of the resulting solution is directly proportional to the number of living cells in culture.
(§4) After appropriate incubation, the culture medium was removed. Next, 50 μL of MTT solution (0.5 mg/mL) diluted in PBS to 0.5 mg/mL was added to each well. […] Then, the precipitated formazan was dissolved by the addition of 200 μL isopropanol. […] The plates were sealed to reduce evaporation before incubation. The test was performed in three to five independent experiments with four times the measured concentration tested. The cell survival percentage was determined as % of controls, which were cells treated with the test compound solvent at the highest concentration.

SH-SY5Y cells = assay: MTT cell survival assay, SH-SY5Y cells; type: cell-based, human; conditions: for IC50: Homo sapiens, SH-SY5Y cells, MTT, 72 h; for Selectivity Index: IC50 Balb/c 3T3 / IC50 SH-SY5Y
Experimental: as §1, §2, §3, §4

Balb/c 3T3 cells = assay: MTT cell survival assay, Balb/c 3T3 cells (normal reference); type: cell-based, murine; conditions: Mus musculus, BALB/c3T3, 72 h
Experimental: as §1, §2, §3
After appropriate incubation, the culture medium was removed. Next, 50 μL of MTT solution (0.5 mg/mL) diluted in PBS to 0.5 mg/mL was added to each well. The plates were incubated for 3 h at 37 °C. Then, the precipitated formazan was dissolved by the addition of 200 μL isopropanol. After a 24-hour incubation at 4 °C in the dark, the absorbance of the dissolved formazan was measured at 570 nm (the maximum absorption of formazan) and at 690 nm (reference wavelength) using a Power Wave XS microplate spectrophotometer (Bio-Tek, Winooski, VT, USA). The plates were sealed to reduce evaporation before incubation. The test was performed in three to five independent experiments with four times the measured concentration tested. The cell survival percentage was determined as % of controls, which were cells treated with the test compound solvent at the highest concentration.

5-HT1A receptor [1] = target: T1, 5-HT1A receptor (Homo sapiens, UniProt P08908); assay: cAMP level (HTRF) in HEK293 cells that overexpress the 5-HT1AR gene; type: cell-based
T1 construct: EGFP; expressed in transfected cells
T1 sequence (P08908 1-422): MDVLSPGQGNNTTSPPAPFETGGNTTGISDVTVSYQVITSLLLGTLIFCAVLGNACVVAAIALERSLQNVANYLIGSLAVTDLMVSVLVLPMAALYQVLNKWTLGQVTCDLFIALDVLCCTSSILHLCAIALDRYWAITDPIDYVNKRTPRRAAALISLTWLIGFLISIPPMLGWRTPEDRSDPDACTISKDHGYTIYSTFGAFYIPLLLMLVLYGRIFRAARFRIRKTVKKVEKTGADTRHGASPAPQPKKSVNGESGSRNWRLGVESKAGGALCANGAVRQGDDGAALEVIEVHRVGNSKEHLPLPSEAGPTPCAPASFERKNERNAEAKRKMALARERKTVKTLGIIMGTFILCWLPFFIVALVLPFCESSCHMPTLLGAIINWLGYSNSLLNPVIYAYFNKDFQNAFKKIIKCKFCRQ
Experimental: (§5) The examination of the functional activity read out as cAMP level inhibition and ERK1/2 and Akt1 phosphorylation was performed according to the instructions of the One-plate Cisbio Bioassays cAMP dynamic 2, phospho-ERK (Thr202/Tyr204) and Akt1 phospho- S473 Cellular Assay Kits respectively, using a HEK293 human fibroblast cell line that overexpresses 5-HT1A receptors. […] The cAMP levels in PC-3 cells were determined using 600,000 cells/mL. Receptor activation with the appropriate ligands was carried out for 30 min, and then the cells were lysed. The results were analyzed with GraphPad Prism v 6.0 (GraphPad Software, San Diego, CA, USA) using its in-built functions. Ligand activity was determined using a 4-parameter equation of the dose-response function. […] M.
(§6) All compounds were tested with both agonists and antagonists. To test the response of cAMP to an agonist the cells were activated with forskolin (1 µM) followed by agonist addition. […] Data are an average of minimum three independent experiments in duplicate. The control of specific activity was measured under the same conditions on cells lacking the 5-HT1A receptor. The results were expressed as % of the reference agonist activity. In the antagonist mode 100% of the reference agonist activity (EC80) corresponded to 0% antagonist activity.

5-HT1A receptor [2] = target: T1, 5-HT1A receptor; assay: ERK1/2 phosphorylation (HTRF) in HEK293 cells that overexpress the 5-HT1AR gene; type: cell-based; conditions: for EC50: agonist mode, HEK293-5-HT1A cells, read-out: ERK1/2 EC50
Experimental: as §5, §6

[3] = set-up: method as in PMID 23574807; conditions: Porsolt forced swim test; cited from earlier work
[4] = tested on: PC-3 prostate cancer cells; assay: Apoptosis determination (FITC Annexin V, flow cytometry) in PC-3 cells; type: cell-based, human; conditions: 72 h, sum of early and late apoptosis
Experimental: Apoptosis was measured using the FITC Annexin V Apoptosis Detection Kit I (BD Biosciences, San Jose, CA, USA). Cells, after incubations 72 h with tested agents, were centrifuged, rinsed twice with cold phosphate-buffered saline (PBS) and suspended in binding buffer at 1 × 10^6 cells/mL. Then, 100-μL volumes of the cell suspensions were labeled according to the manufacturer’s instructions. Flow cytometry analysis was performed within 1 h after labeling. Flow cytometry analyses was run on a FACSCanto II flow cytometer (BD Biosciences, San Jose CA, USA) and analyzed using BD FACSDiva software.

[5] = target: T2, serotonin transporter (SERT) (Rattus norvegicus, UniProt P31652); assay: In vitro binding affinity for serotonin transporter ([3H]-citalopram displacement); conditions: rat cerebral cortex, read-out: SERT Ki ± SEM
T2 construct: Rat cerebral cortex was homogenized in 30 volumes of ice-cold 50 mM Tris-HCl; from tissue; host or cells: rat cerebral cortex (membrane pellet)
Experimental: The experiments were performed according to the method described by Owens et al. Rat cerebral cortex was homogenized in 30 volumes of ice-cold 50 mM Tris-HCl containing 150 mM NaCl and 5 mM KCl, pH 7.7 at 25 °C and centrifuged at 20,000 × g for 20 min. The supernatant was decanted, and the pellet was resuspended in 30 volumes of buffer and centrifuged three times. The final pellet was suspended in Tris-HCl buffer at a proportion of approximately 5 mg wet weight/mL. An increasing concentration of the analyzed compounds (30 μL) was added to the incubation mixture containing 240 μL of tissue suspension and 30 μL of 1 nM [^3H]-citalopram (used for labeling 5-HT-transporter). Non-specific binding was determined in the presence 30 μL of 1 μM imipramine (displacer). Duplicate samples were incubated at room temperature for 1 h. The incubation was terminated by rapid filtration over fiberglass filters FilterMate B (Perkin Elmer, Waltham, MA, USA) using a 96-well FilterMate harvester (PerkinElmer, Waltham, MA, USA). The radioactivity of the filters was measured with a MicroBeta TriLux 1450 scintillation counter. Ki values were calculated from the Cheng–Prusoff equation [31]: (1) Ki=IC50/1+Lo/KD where Lo is the labeled ligand concentration, and KD is the dissociation constant of the labeled ligand.

T2 sequence (P31652 whole entry): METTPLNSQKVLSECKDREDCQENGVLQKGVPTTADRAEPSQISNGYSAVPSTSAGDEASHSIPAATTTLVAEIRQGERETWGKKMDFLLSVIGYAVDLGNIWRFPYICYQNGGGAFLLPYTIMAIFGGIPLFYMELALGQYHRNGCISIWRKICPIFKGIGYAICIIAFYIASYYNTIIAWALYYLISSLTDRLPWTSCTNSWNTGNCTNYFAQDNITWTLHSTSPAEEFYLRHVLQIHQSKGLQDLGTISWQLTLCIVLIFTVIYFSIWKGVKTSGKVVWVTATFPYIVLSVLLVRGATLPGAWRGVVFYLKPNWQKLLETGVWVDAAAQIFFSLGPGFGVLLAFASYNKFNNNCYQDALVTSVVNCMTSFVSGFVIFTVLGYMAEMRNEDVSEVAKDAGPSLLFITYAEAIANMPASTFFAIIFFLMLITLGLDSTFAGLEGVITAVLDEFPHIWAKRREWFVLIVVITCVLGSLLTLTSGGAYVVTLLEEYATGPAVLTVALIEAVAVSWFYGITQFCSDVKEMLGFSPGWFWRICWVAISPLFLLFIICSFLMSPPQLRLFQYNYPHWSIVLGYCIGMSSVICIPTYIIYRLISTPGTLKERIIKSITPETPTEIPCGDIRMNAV

CCCCCCCCCN1CCN(c2ccc3cc([N+](=O)[O-])ccc3n2)CC1 [AZ05, 6-nitro-2-(4-nonylpiperazin-1-yl)quinolone hydrochloride]
IC50 (PC-3 cells): 9.85 ± 0.79 µM | Selectivity Index (PC-3 cells): 2.48 | IC50 (SH-SY5Y cells): 17.3 ± 1.85 µM | Selectivity Index (SH-SY5Y cells): 1.41 | IC50 (Balb/c 3T3 cells): 24.4 ± 1.49 µM | IC50 (5-HT1A receptor [1]): 9.7 µM | IC50 (5-HT1A receptor [2]): 1.28 µM | antidepressant activity [3]: moderate antidepressant activity

CC(=O)N1CCC(c2ccc(F)cc2)C(COc2ccc3c(c2)OCO3)C1 (stereo not drawn) [N-Ac-Paroxetine, reference compound]
IC50 (PC-3 cells): 45.3 ± 1.44 µM | Selectivity Index (PC-3 cells): 1.46 | IC50 (SH-SY5Y cells): 65.6 ± 1.01 µM | Selectivity Index (SH-SY5Y cells): 1.01 | IC50 (Balb/c 3T3 cells): 66.2 ± 2.35 µM | IC50 (5-HT1A receptor [1]): 1 µM | EC50 (5-HT1A receptor [2]): 4.23 µM

COCCCC/C(=N\OCCNC(C)=O)c1ccc(C(F)(F)F)cc1 [N-Ac-Fluvoxamine, reference compound]
IC50 (PC-3 cells): 92.2 ± 9.65 µM | IC50 (SH-SY5Y cells): 112 ± 3.85 µM | Selectivity Index (SH-SY5Y cells): 1.21 | IC50 (Balb/c 3T3 cells): 136 ± 3.95 µM | IC50 (5-HT1A receptor [1]): 20.1 µM | IC50 (5-HT1A receptor [2]): 11.2 µM

COc1ccccc1N1CCN(CCN(C(=O)C2CCCCC2)c2ccccn2)CC1 [WAY100635, N-[2-[4-(2-Methoxyphenyl)-1-piperazinyl]ethyl]-N-2-pyridinylcyclohexanecarboxamide maleate, reference compound]
IC50 (PC-3 cells): 43.3 ± 4.05 µM | IC50 (SH-SY5Y cells): 74.3 ± 11.8 µM | IC50 (Balb/c 3T3 cells): 88 ± 13.5 µM

CCCCCCCCCCCN1CCN(c2ccc3cc([N+](=O)[O-])ccc3n2)CC1.Cl [AZ07, 6-nitro-2-(4-undecylpiperazin-1-yl)quinoline hydrochloride]
IC50 (PC-3 cells): 5.74 ± 1.02 µM | Selectivity Index (PC-3 cells): 2.00 | IC50 (SH-SY5Y cells): 9.15 ± 0.74 µM | Selectivity Index (SH-SY5Y cells): 1.26 | IC50 (Balb/c 3T3 cells): 11.5 ± 0.62 µM | IC50 (5-HT1A receptor [1]): 0.73 µM | IC50 (5-HT1A receptor [2]): 0.9 µM | apoptosis ([4]; 25 μM): 20% | apoptosis ([4]; 50 μM): 35% | apoptosis ([4]; 75 μM): 44% | antidepressant activity [3]: moderate antidepressant activity

COCCCC/C(=N\OCCN)c1ccc(C(F)(F)F)cc1 [Fluvoxamine, fluvoxamine, reference compound]
IC50 (PC-3 cells): 47.8 ± 2.85 µM | IC50 (SH-SY5Y cells): 89.4 ± 3.64 µM | IC50 (Balb/c 3T3 cells): 52 ± 5.4 µM

Cl.O=[N+]([O-])c1ccc2nc(N3CCN(CC4CCCCC4)CC3)ccc2c1 [AB21, 2-[4-(cyclohexylmethyl)piperazin-1-yl]-6-nitroquinoline hydrochloride]
Ki [5]: 0.0149 ± 0.0016 µM | IC50 (PC-3 cells): 18 ± 1.88 µM | Selectivity Index (PC-3 cells): 1.14 | IC50 (SH-SY5Y cells): 21.6 ± 1.07 µM | Selectivity Index (SH-SY5Y cells): 0.95 | IC50 (Balb/c 3T3 cells): 20.5 ± 3.5 µM | IC50 (5-HT1A receptor [1]): 0.002 µM | IC50 (5-HT1A receptor [2]): 0.78 µM | melting point: 107 to 108 °C

Cl.O=[N+]([O-])c1ccc2nc(N3CCN(CC4CCC4)CC3)ccc2c1 [AB22, 2-[4-(cyclobutylmethyl)piperazin-1-yl]-6-nitroquinoline hydrochloride]
Ki [5]: 0.0076 ± 0.0008 µM | IC50 (PC-3 cells): 23.5 ± 2.21 µM | Selectivity Index (PC-3 cells): 1.51 | IC50 (SH-SY5Y cells): 35 ± 8.96 µM | Selectivity Index (SH-SY5Y cells): 1.01 | IC50 (Balb/c 3T3 cells): 35.5 ± 8.71 µM | IC50 (5-HT1A receptor [1]): 76.1 µM | EC50 (5-HT1A receptor [2]): 0.0138 µM | melting point: 99 to 101 °C

Fc1ccc([C@@H]2CCNC[C@H]2COc2ccc3c(c2)OCO3)cc1 [Paroxetine, paroxetine, reference compound]
IC50 (PC-3 cells): 12.1 ± 0.37 µM | Selectivity Index (PC-3 cells): 1.23 | IC50 (SH-SY5Y cells): 18.1 ± 0.48 µM | Selectivity Index (SH-SY5Y cells): 0.82 | IC50 (Balb/c 3T3 cells): 14.9 ± 0.24 µM | IC50 (5-HT1A receptor [1]): 0.0511 µM | EC50 (5-HT1A receptor [2]): 0.15 µM

Cl.O=[N+]([O-])c1ccc2nc(N3CCN(Cc4ccc(F)cc4)CC3)ccc2c1 [AB5A, 2-[4-(4-fluorobenzyl)piperazin-1-yl]-6-nitroquinoline hydrochloride]
Ki [5]: 0.0074 ± 0.0024 µM | IC50 (PC-3 cells): 27.2 ± 3.2 µM | Selectivity Index (PC-3 cells): 1.43 | IC50 (SH-SY5Y cells): 18.1 ± 1.68 µM | Selectivity Index (SH-SY5Y cells): 2.15 | IC50 (Balb/c 3T3 cells): 38.9 ± 4.08 µM | IC50 (5-HT1A receptor [1]): 96.9 µM | IC50 (5-HT1A receptor [2]): 17.9 µM

CNCCC(Oc1ccc(C(F)(F)F)cc1)c1ccccc1 (stereo not drawn) [Fluoxetine, fluoxetine, reference compound]
apoptosis ([4]; 25 μM): 21% | apoptosis ([4]; 50 μM): 60% | apoptosis ([4]; 75 μM): 80%

CCCCCCCCN1CCN(c2ccc3cc([N+](=O)[O-])ccc3n2)CC1.Cl [KW117, 6-nitro-2-(4-octylpiperazin-1-yl)quinoline hydrochloride]
IC50 (PC-3 cells): 14.4 ± 1.7 µM | Selectivity Index (PC-3 cells; listed as KW117 (6)): 2.65 | IC50 (SH-SY5Y cells): 25.4 ± 2.66 µM | Selectivity Index (SH-SY5Y cells): 1.50 | IC50 (Balb/c 3T3 cells): 38.1 ± 6.54 µM | IC50 (5-HT1A receptor [2]): 7.18 µM | antidepressant activity [3]: moderate antidepressant activity
